In article PMC8801607, “New Chitosan Polymer Scaffold Schiff Bases as Potential Cytotoxic Activity: Synthesis, Molecular Docking, and Physiochemical Characterization” (Frontiers in Chemistry, 2022):

Tested on: MCF-7 cancer cell line
Assay: cells
Experimental: MCF-7 breast cell line was employed in this study. The MCF-7 cell line was pre-incubated on a micro titer plate in this technique. Each test’s results are expressed as a percentage of the treated cells’ growth relative to the untreated control cells. […] 0.1 ml of the cell suspension (containing 5 × 10^6 cells/100 µL)and 0.1 ml of the test solution (6.25–100 µg in 1% DMSO such that the final concentration of DMSO in media was less than 1%) were added to the […] and incubated at 37°C for 72 h in a 5 percent CO2 incubator. The control wells included 1 percent DMSO and cell suspension, while the blank contained simply cell suspension. After 72 h, 20 µL of MTT were added and left in the CO2 incubator for 2 h before adding 100 µL of propanol. To protect the plate from light, it was wrapped in aluminum foil. The […] were then shaken for 10–25 min in a rotary shaker. The […] were processed on an ELISA reader for absorbance at 562 nm after 10–20 min.

Question: For `COc1cccc2c1C(=O)c1c(O)c3c(c(O)c1C2=O)C[C@@](O)(C(=O)CO)C[C@@H]3O[C@H]1C[C@H](N)[C@H](O)[C@H](C)O1` [Doxorubicin], which GI50 (Homo sapiens, MCF7) is on record?
Answer: The GI50 was 40 nM.

Question: And the “TGI (total growth of inhibition)” value (MCF-7 cell line, MTT assay, mean ± SD of three separate experiments)?
Answer: The value was 250 ± 230 nM.
